Tests used:
Assay in all cases: Post-emergence test, weed control effect
Assay type in all cases: in vivo
Conditions in all cases: after 3 weeks
Chenopodiaceae = test system: Chenopodiaceae
Excerpt: (§1) The activity level standard of harmful plant destruction (i.e. growth inhibition rate) is as follows: • Level 10: completely dead; • Level 9: above 90% growth inhibition rate; • Level 8: above 80% growth inhibition rate; • Level 7: above 70% growth inhibition rate; • Level 6: above 60% growth inhibition rate; • Level 5: above 50% growth inhibition rate; • Level 4: above 40% growth inhibition rate; • Level 3: above 30% growth inhibition rate; • Level 2: above 20% growth inhibition rate; • Level 1: below 20% growth inhibition rate; • Level 0: no effect.
(§2) The above described growth inhibition rates are fresh weight inhibition rates.
(§3) Experiment of post-emergence test: monocotyledonous and dicotyledonous weed seeds as well as main crop seeds (i.e., wheat, corn, rice, soybean, cotton, oilseed rape, millet and sorghum) were put into a plastic pot loaded with soil, then covered with 0.5-2 cm of soil, and the seeds were allowed to grow in good greenhouse environment. The test plants were treated at 2-3 leaf stage 2-3 weeks after sowing. The test compounds of the invention were dissolved in acetone respectively, then added with Tween-80 and diluted by a certain amount of water to give solutions with certain concentrations, and added with 80% vegetable oil methyl ester synergist at 1500 g/ha. The solution was sprayed to the plants with a sprayer. The plants were cultured for 3 weeks in the greenhouse.

Amaranthus retroflexus = test system: Amaranthus retroflexus
Excerpt: as §1, §2, §3

Veronica polita = test system: Veronica polita
Excerpt: as §1, §2, §3

Rorippa indica = test system: Rorippa indica
Excerpt: as §1, §2, §3

Oc1cc(C(F)(F)F)nnc1-c1ccc2cc[nH]c2c1 [Compound 588]
10: weed control effect (activity level), Chenopodiaceae (Chenopodiaceae; Dose 3000 g/ha) | weed control effect (activity level), Amaranthus retroflexus (Amaranthus retroflexus; Dose 3000 g/ha) | weed control effect (activity level), Veronica polita (Veronica polita; Dose 3000 g/ha) | weed control effect (activity level), Rorippa indica (Rorippa indica; Dose 3000 g/ha)

Oc1cc(C(F)(F)F)nnc1-c1cccc(Cl)c1 [Compound 27]
10: weed control effect (activity level), Chenopodiaceae (Chenopodiaceae; dose 1000 g/ha) | weed control effect (activity level), Amaranthus retroflexus (Amaranthus retroflexus; dose 1000 g/ha) | weed control effect (activity level), Veronica polita (Veronica polita; dose 1000 g/ha) | weed control effect (activity level), Rorippa indica (Rorippa indica; dose 1000 g/ha)

Oc1cc(C(F)(F)F)nnc1-c1ccc(I)nc1 [Compound 970]
10: weed control effect (activity level), Chenopodiaceae (Chenopodiaceae; Dose 3000 g/ha) | weed control effect (activity level), Amaranthus retroflexus (Amaranthus retroflexus; Dose 3000 g/ha) | weed control effect (activity level), Veronica polita (Veronica polita; Dose 3000 g/ha) | weed control effect (activity level), Rorippa indica (Rorippa indica; Dose 3000 g/ha)

Oc1cc(C(F)(F)F)nnc1-c1cccc2cc[nH]c12 [Compound 589]
10: weed control effect (activity level), Chenopodiaceae (Chenopodiaceae; Dose 3000 g/ha) | weed control effect (activity level), Amaranthus retroflexus (Amaranthus retroflexus; Dose 3000 g/ha) | weed control effect (activity level), Veronica polita (Veronica polita; Dose 3000 g/ha) | weed control effect (activity level), Rorippa indica (Rorippa indica; Dose 3000 g/ha)

Oc1cc(C(F)(F)F)nnc1-c1c(Cl)ccnc1Cl [Compound 993]
10: weed control effect (activity level), Chenopodiaceae (Chenopodiaceae; Dose 3000 g/ha) | weed control effect (activity level), Amaranthus retroflexus (Amaranthus retroflexus; Dose 3000 g/ha) | weed control effect (activity level), Veronica polita (Veronica polita; Dose 3000 g/ha) | weed control effect (activity level), Rorippa indica (Rorippa indica; Dose 3000 g/ha)

O=C(Oc1cc(C(F)(F)F)nnc1-c1ccc(F)c(F)c1)c1ccc2[nH]ccc2c1 [Compound 1-115]
10: weed control effect, Chenopodiaceae (activity level) (Chenopodiaceae; Dose 3000 g/ha) | weed control effect, Amaranthus retroflexus (activity level) (Amaranthus retroflexus; Dose 3000 g/ha) | weed control effect, Veronica polita (activity level) (Veronica polita; Dose 3000 g/ha) | weed control effect, Rorippa indica (activity level) (Rorippa indica; Dose 3000 g/ha)

Oc1cc(C(F)(F)F)nnc1-c1cccc2cccnc12 [Compound 734]
10: weed control effect (activity level), Chenopodiaceae (Chenopodiaceae; dose 1000 g/ha) | weed control effect (activity level), Amaranthus retroflexus (Amaranthus retroflexus; dose 1000 g/ha) | weed control effect (activity level), Veronica polita (Veronica polita; dose 1000 g/ha) | weed control effect (activity level), Rorippa indica (Rorippa indica; dose 1000 g/ha)

CCC/C=N\Oc1cc(C(F)(F)F)nnc1-c1ccc(F)cc1 [Compound 1-172]
10: weed control effect, Chenopodiaceae (activity level) (Chenopodiaceae; Dose 3000 g/ha) | weed control effect, Amaranthus retroflexus (activity level) (Amaranthus retroflexus; Dose 3000 g/ha) | weed control effect, Veronica polita (activity level) (Veronica polita; Dose 3000 g/ha) | weed control effect, Rorippa indica (activity level) (Rorippa indica; Dose 3000 g/ha)

CN(C)c1cnn(C)c1-c1nnc(C(F)(F)F)cc1O [Compound 816]
10: weed control effect (activity level), Chenopodiaceae (Chenopodiaceae; Dose 3000 g/ha) | weed control effect (activity level), Amaranthus retroflexus (Amaranthus retroflexus; Dose 3000 g/ha) | weed control effect (activity level), Veronica polita (Veronica polita; Dose 3000 g/ha) | weed control effect (activity level), Rorippa indica (Rorippa indica; Dose 3000 g/ha)

CP(=O)(O)CCC(N)C(=O)Oc1cc(C(F)(F)F)nnc1-c1ccc(F)cc1 (centres unmarked) [Compound 1-78]
10: weed control effect, Chenopodiaceae (activity level) (Chenopodiaceae; Dose 3000 g/ha) | weed control effect, Amaranthus retroflexus (activity level) (Amaranthus retroflexus; Dose 3000 g/ha) | weed control effect, Veronica polita (activity level) (Veronica polita; Dose 3000 g/ha) | weed control effect, Rorippa indica (activity level) (Rorippa indica; Dose 3000 g/ha)

O=C(Oc1cc(C(F)(F)F)nnc1-c1ccc(C(F)(F)F)cc1)c1cccc2c1OCO2 [Compound 1-118]
10: weed control effect, Chenopodiaceae (activity level) (Chenopodiaceae; Dose 3000 g/ha) | weed control effect, Amaranthus retroflexus (activity level) (Amaranthus retroflexus; Dose 3000 g/ha) | weed control effect, Veronica polita (activity level) (Veronica polita; Dose 3000 g/ha) | weed control effect, Rorippa indica (activity level) (Rorippa indica; Dose 3000 g/ha)

O=S(=O)(Oc1cc(C(F)(F)F)nnc1-c1ccc(F)c(F)c1)c1cc(F)c(Br)cc1F [Compound 1-138]
10: weed control effect, Chenopodiaceae (activity level) (Chenopodiaceae; Dose 3000 g/ha) | weed control effect, Amaranthus retroflexus (activity level) (Amaranthus retroflexus; Dose 3000 g/ha) | weed control effect, Veronica polita (activity level) (Veronica polita; Dose 3000 g/ha) | weed control effect, Rorippa indica (activity level) (Rorippa indica; Dose 3000 g/ha)

Oc1cc(C(F)(F)F)nnc1-c1cccnc1Cl [Compound 205]
10: weed control effect (activity level), Chenopodiaceae (Chenopodiaceae; dose 2000 g/ha) | weed control effect (activity level), Amaranthus retroflexus (Amaranthus retroflexus; dose 2000 g/ha) | weed control effect (activity level), Veronica polita (Veronica polita; dose 2000 g/ha) | weed control effect (activity level), Rorippa indica (Rorippa indica; dose 2000 g/ha)

COc1cnn(C)c1-c1nnc(C(F)(F)F)cc1O [Compound 811]
10: weed control effect (activity level), Chenopodiaceae (Chenopodiaceae; Dose 3000 g/ha) | weed control effect (activity level), Amaranthus retroflexus (Amaranthus retroflexus; Dose 3000 g/ha) | weed control effect (activity level), Veronica polita (Veronica polita; Dose 3000 g/ha) | weed control effect (activity level), Rorippa indica (Rorippa indica; Dose 3000 g/ha)

Oc1cc(C(F)(F)F)nnc1-c1cnc(Cl)cc1Cl [Compound 995]
10: weed control effect (activity level), Chenopodiaceae (Chenopodiaceae; Dose 3000 g/ha) | weed control effect (activity level), Amaranthus retroflexus (Amaranthus retroflexus; Dose 3000 g/ha) | weed control effect (activity level), Veronica polita (Veronica polita; Dose 3000 g/ha) | weed control effect (activity level), Rorippa indica (Rorippa indica; Dose 3000 g/ha)

CCCCCC/C(C)=N\Oc1cc(C(F)(F)F)nnc1-c1ccc(Cl)cc1Cl [Compound 1-176]
10: weed control effect, Chenopodiaceae (activity level) (Chenopodiaceae; Dose 3000 g/ha) | weed control effect, Amaranthus retroflexus (activity level) (Amaranthus retroflexus; Dose 3000 g/ha) | weed control effect, Veronica polita (activity level) (Veronica polita; Dose 3000 g/ha) | weed control effect, Rorippa indica (activity level) (Rorippa indica; Dose 3000 g/ha)

CCCCCCCCSC(=S)Oc1cc(C(F)(F)F)nnc1-c1ccc(F)c(F)c1 [Compound 1-163]
10: weed control effect, Chenopodiaceae (activity level) (Chenopodiaceae; Dose 3000 g/ha) | weed control effect, Amaranthus retroflexus (activity level) (Amaranthus retroflexus; Dose 3000 g/ha) | weed control effect, Veronica polita (activity level) (Veronica polita; Dose 3000 g/ha) | weed control effect, Rorippa indica (activity level) (Rorippa indica; Dose 3000 g/ha)

— patent US12568972B2, “Pyridazinol compounds and derivatives, preparation methods, herbicidal compositions and applications thereof” (Qingdao Kingagroot Chemical Compound Co., Ltd., priority 2018, dated 2026)
